Results published in PubChem BioAssay AID602356 (Sanford-Burnham Center for Chemical Genomics, 2012).
“And” between values parts separate entries of the source, which are not always exact repeats. Identical values can stand only once. The source made the active and inactive calls. The rule behind the calls is not given here.

These compounds were tested against Neurotensin receptor type 1 (Homo sapiens) (UniProt P30989) (assay: NTR1 agonists in analog series, SAR follow-up, imaging, image-based, set 3 (AID 602356)). Conditions: NTR1 image-based agonist assay, cellular imaging.
Sequence of Neurotensin receptor type 1 (Homo sapiens) (P30989 whole entry, looked up): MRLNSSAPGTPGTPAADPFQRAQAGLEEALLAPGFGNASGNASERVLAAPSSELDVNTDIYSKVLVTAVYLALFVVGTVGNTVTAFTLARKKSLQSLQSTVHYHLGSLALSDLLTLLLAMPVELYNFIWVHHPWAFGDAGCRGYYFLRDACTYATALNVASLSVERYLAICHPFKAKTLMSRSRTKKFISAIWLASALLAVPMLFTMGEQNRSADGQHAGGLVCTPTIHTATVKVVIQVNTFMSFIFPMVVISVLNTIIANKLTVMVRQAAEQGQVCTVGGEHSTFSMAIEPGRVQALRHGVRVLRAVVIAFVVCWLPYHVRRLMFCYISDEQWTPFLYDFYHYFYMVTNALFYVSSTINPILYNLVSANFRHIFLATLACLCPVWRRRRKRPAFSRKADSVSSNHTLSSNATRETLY

| SMILES | EC50 |
| --- | --- |
| Cc1ccc(Cn2cc3c(-c4ccc(F)cc4)nnc-3c3cc4c(cc32)OCO4)cc1 | 5.49 µM and 8.2 µM |
| Cc1ccc(Cn2cc3c(-c4ccc(C)c(C)c4)nnc-3c3cc4c(cc32)OCO4)cc1 | 16.4 µM |
| COc1cc2c3nnc(-c4ccc(F)cc4)c-3cn(Cc3ccncc3)c2cc1OC | 18.4 µM |
| COc1ccc2c(c1)c1nnc(-c3ccc(F)cc3)c-1cn2Cc1ccc(C)cc1 | > 80 µM (inactive) |
| COc1ccc(-c2nnc3c4ccccc4n(CC4CC4)cc2-3)cc1 | inactive |
| COc1ccccc1-c1nc(C(=O)N[C@@H](CC(C)C)C(=O)O)cn1-c1ccnc2cc(Cl)ccc12 | inactive |
| Cc1ccc(Cn2cc3c(-c4ccc(C)cc4)nnc-3c3cc4c(cc32)OCO4)cc1 | inactive |
| COc1cc2c3nnc(-c4ccc(F)cc4)c-3cn(Cc3ccc(Cl)cc3)c2cc1OC | 7.54 µM |
| COc1ccc2c(c1)c1nnc(-c3ccc(F)cc3)c-1cn2Cc1ccccc1 | 9.24 µM |
| COc1cc2c3nnc(-c4ccc(Cl)cc4)c-3cn(Cc3ccc(F)cc3)c2cc1OC | 2.95 µM |
| CC(C)C[C@H](NC(=O)c1cn(-c2ccncc2)c(-c2ccccc2)n1)C(=O)O | > 80 µM (inactive) |
| CC(C)C[C@H](NC(=O)c1cn(-c2ccnc3ccccc23)c(-c2ccccc2)n1)C(=O)O | > 80 µM (inactive) |
| CC(C)C[C@H](NC(=O)c1cn(-c2ccnc3cc(Cl)ccc23)c(-c2ccccc2)n1)C(=O)O | inactive |
| COc1ccc(-c2nnc3c4ccccc4n(CCc4ccccc4)cc2-3)cc1 | inactive |
| COc1ccc2c3nnc(-c4ccc(C)cc4)c-3cn(Cc3ccc(C)cc3)c2c1 | 11.2 µM |
| Cc1ccc(-c2nnc3c4cc5c(cc4n(Cc4ccc(F)cc4)cc2-3)OCO5)cc1 | 9.43 µM |
| COc1ccc(-c2nnc3c4ccccc4n(Cc4ccccc4)cc2-3)cc1 | inactive |
| Cc1cccc(C)c1-c1nc(C(=O)N[C@@H](CC(C)C)C(=O)O)cn1-c1ccnc2cc(Cl)ccc12 | 9.23 µM |
| CCn1cc2c(-c3ccc(OC)cc3)nnc-2c2ccccc21 | > 80 µM (inactive) |

| SMILES | EC50 |
| --- | --- |
| Fc1ccc(-c2nnc3c4cc5c(cc4n(Cc4ccccc4)cc2-3)OCO5)cc1 | 10.9 µM |
| Clc1ccc(-c2nnc3c4cc5c(cc4n(Cc4ccccc4)cc2-3)OCO5)cc1 | > 80 µM (inactive) |
| c1ccc(Cn2cc3c(-c4ccccc4)nnc-3c3ccccc32)cc1 | inactive |
| COc1cccc(OC)c1-c1nc(C(=O)N[C@@H](CC(C)C)C(=O)O)cn1-c1ccc(C)cc1 | > 80 µM (inactive) |
| Fc1ccc(Cn2cc3c(-c4ccc(F)cc4)nnc-3c3cc4c(cc32)OCO4)cc1 | 7.29 µM |
| Fc1ccc(Cn2cc3c(-c4ccc(Cl)cc4)nnc-3c3cc4c(cc32)OCO4)cc1 | 9.12 µM |
| Cc1ccc(Cn2cc3c(-c4ccc(Cl)cc4)nnc-3c3cc4c(cc32)OCO4)cc1 | inactive |
| Cc1ccc(-c2nnc3c4cc5c(cc4n(Cc4ccccc4)cc2-3)OCO5)cc1 | inactive |
| Cc1ccc(Cn2cc3c(-c4ccc(F)cc4)nnc-3c3ccccc32)cc1 | > 80 µM (inactive) |
| COc1ccc2c(c1)c1nnc(-c3ccc(F)cc3)c-1cn2Cc1ccc(F)cc1 | 13.9 µM |
| COc1cccc(OC)c1-c1cc(C(=O)NC2(C(=O)O)C3CC4CC(C3)CC2C4)nn1-c1ccnc2cc(Cl)ccc12 (centres undefined) | inactive |
| COc1ccccc1-c1cc(C(=O)N[C@@H](CC(C)C)C(=O)O)nn1-c1ccnc2cc(Cl)ccc12 | 0.966 µM |
| COc1ccc(-c2nnc3c4ccccc4n(Cc4ccc(C)cc4)cc2-3)cc1 | > 80 µM (inactive) |
| COc1cc2c3nnc(-c4ccc(Cl)cc4)c-3cn(Cc3ccc(C)cc3)c2cc1OC | 18.1 µM |
| COc1ccc(-c2nnc3c4ccccc4n(Cc4ccc(Cl)cc4)cc2-3)cc1 | inactive |
| Cc1ccc(-c2nnc3c4cc5c(cc4n(Cc4ccc(F)cc4)cc2-3)OCO5)cc1C | inactive |
| COc1ccc(-c2nnc3c4ccccc4n(Cc4ccncc4)cc2-3)cc1 | > 80 µM (inactive) |
| COc1ccc2c3nnc(-c4ccc(C)cc4)c-3cn(Cc3ccccc3)c2c1 | 15.8 µM |
| COc1cccc(OC)c1-c1nc(C(=O)N[C@@H](CC(C)C)C(=O)O)cn1-c1ccncc1 | inactive |

Now from value to compound:

| EC50 | SMILES |
| --- | --- |
| 19.9 µM | COc1cc2c3nnc(-c4ccccc4)c-3cn(Cc3ccccc3)c2cc1OC |
| > 80 µM (inactive) | COc1cc2nc(C3CC3)nc(N3CCN(S(=O)(=O)c4ccccc4)CC3)c2cc1OC |
| > 80 µM (inactive) | CCOc1cc2nc(-c3ccc(OC)c(OC)c3)nc(N3CCN(c4ccccc4)CC3)c2cc1OC |
| 3.76 µM | COc1cccc(OC)c1-c1nc(C(=O)N[C@@H](CC(C)C)C(=O)O)cn1-c1ccnc2ccccc12 |
| 7.24 µM and 7.42 µM | COc1cc2c3nnc(-c4ccc(F)cc4)c-3cn(Cc3ccccc3)c2cc1OC |
| 8.05 µM | CCOc1ccc(-c2nnc3c4cc(OC)c(OC)cc4n(Cc4ccc(F)cc4)cc2-3)cc1 |
| 7.65 µM | COc1cc2nc(C(C)C)nc(N3CCN(c4ccccc4OC)CC3)c2cc1OC |
| > 80 µM (inactive) | COc1cccc(OC)c1-c1cc(C(=O)NC2(C(=O)O)C3CC4CC(C3)CC2C4)nn1-c1ccc(C(=O)N(C)CCCN(C)C)cc1C(C)C (centres undefined) |
| inactive | COc1cc2nc(C3CCC3)nc(N3CCN(c4ccccc4[N+](=O)[O-])CC3)c2cc1OC |
| inactive | COc1ccc(N2CCN(c3nc(C4CCC4)nc4cc(OC)c(OC)cc34)CC2)cc1 |
| 4.9 µM | COc1cc2c3nnc(-c4ccc(C)c(C)c4)c-3cn(Cc3ccc(C)cc3)c2cc1OC |
| 2.18 µM and 1.89 µM | COc1cc2nc(C3CC3)nc(N3CCN(c4ccccc4OC)CC3)c2cc1OC |
| > 80 µM (inactive) | COc1cc2nc(-c3ccccc3)nc(N3CCN(c4ccc(Cl)cc4)CC3)c2cc1OC |
| > 80 µM (inactive) | CCOC(=O)c1cc(-c2c(OC)cccc2OC)n(-c2ccnc3cc(Cl)ccc23)n1 |
| 6.4 µM | COc1cc2c3nnc(-c4ccc(C)cc4)c-3cn(Cc3ccc(F)cc3)c2cc1OC |
| > 80 µM (inactive) | CCOc1cc2c(N3CCN(c4ccccc4OC)CC3)nc(-c3ccc(OC)c(OC)c3)nc2cc1OC |
| 2.01 µM and 4.14 µM | COc1cccc(OC)c1-c1nc(C(=O)N[C@@H](CC(C)C)C(=O)O)cn1-c1ccnc2cc(Cl)ccc12 |
| 6.34 µM and 6.55 µM | COc1cc2c3nnc(-c4ccc(F)cc4)c-3cn(Cc3cccc(C)c3)c2cc1OC |
| 17.7 µM | COc1cc2nc(C3CCC3)nc(N3CCN(c4ccccc4F)CC3)c2cc1OC |

| EC50 | SMILES |
| --- | --- |
| 4.36 µM and 4.14 µM | COc1cc2c3nnc(-c4ccc(F)cc4)c-3cn(Cc3ccccc3N(C)C)c2cc1OC |
| 5.01 µM | COc1ccccc1-c1cc(C(=O)N[C@@H](CC(C)C)C(=O)OC(C)(C)C)nn1-c1ccnc2cc(Cl)ccc12 |
| inactive | COc1cc2nc(C3CCC3)nc(N3CCN(c4c(C)cccc4C)CC3)c2cc1OC |
| inactive | COc1cc2c3nnc(-c4ccc(F)cc4)c-3cn(Cc3ccccn3)c2cc1OC |
| inactive | COc1cc2c3nnc(-c4ccc(F)cc4)c-3cn(CC3CC3)c2cc1OC |
| 4.15 µM | COc1cc2c3nnc(-c4ccc(Cl)cc4)c-3cn(Cc3ccccc3)c2cc1OC |
| inactive | COc1cc2nc(C3CC3)nc(N3CCN(C(=O)c4ccccc4OC)CC3)c2cc1OC |
| 5.21 µM | COc1ccc(-c2nnc3c4cc(OC)c(OC)cc4n(Cc4ccc(C)cc4)cc2-3)cc1 |
| inactive | COc1ccccc1N1CCN(c2nc(C3CCC3)nc3cc4c(cc23)OCO4)CC1 |
| > 80 µM (inactive) | COc1cc2ncc3c(-c4ccc(F)cc4)n[nH]c3c2cc1OC |
| 8.92 µM | CCOc1ccc(-c2nnc3c4cc(OC)c(OC)cc4n(Cc4ccccc4)cc2-3)cc1 |
| > 80 µM (inactive) | COc1cc2c3nnc(-c4ccc(F)cc4)c-3cn(Cc3cccc(N(C)C)c3)c2cc1OC |
| inactive | CCc1ccc(-c2nnc3c4cc(OC)c(OC)cc4n(Cc4ccccc4)cc2-3)cc1 |
| 6.2 µM | COc1cc2c3nnc(-c4ccc(C)c(C)c4)c-3cn(Cc3ccccc3)c2cc1OC |
| 6.9 µM and 6.79 µM | COc1cc2c3nnc(-c4ccc(F)cc4)c-3cn(Cc3ccc(C)cc3)c2cc1OC |
| 10 µM | COc1ccc2nc(C3CCC3)nc(N3CCN(c4ccccc4OC)CC3)c2c1 |
| 2.52 µM | COc1cc2c3nnc(-c4ccc(F)cc4)c-3cn(Cc3ccccc3F)c2cc1OC |
| 17.2 µM | COc1cccc(N2CCN(c3nc(C4CCC4)nc4cc(OC)c(OC)cc34)CC2)c1 |
| > 80 µM (inactive) | COc1cc2c3nnc(-c4ccc(F)cc4)c-3cn(Cc3cccnc3)c2cc1OC |

| EC50 | SMILES |
| --- | --- |
| inactive | COc1ccccc1CN1CCN(c2nc(C3CC3)nc3cc(OC)c(OC)cc23)CC1 |
| inactive | COc1cc2nc(C3CCC3)nc(N3CCN(c4ccccn4)CC3)c2cc1OC |
| > 80 µM (inactive) | COc1cc2nc(-c3ccccc3)nc(N3CCN(c4ccccc4F)CC3)c2cc1OC |
| > 80 µM (inactive) | COc1cc2nc(CCN(C)C)nc(N3CCN(c4ccccc4OC)CC3)c2cc1OC |
| 9.41 µM | COc1cccc(OC)c1-c1nc(C(=O)N[C@H](CC(C)C)C(=O)O)cn1-c1ccnc2cc(Cl)ccc12 |
| inactive | COc1ccc(N2CCN(c3nc(C4CCC4)nc4cc(OC)c(OC)cc34)CC2)c(OC)c1 |
| 13.8 µM | COc1cc2nc(Cc3ccccc3)nc(N3CCN(c4ccccc4OC)CC3)c2cc1OC |
| inactive | COc1cc2nc(C3CC3)nc(N3CCN(C(=O)OC(C)(C)C)CC3)c2cc1OC |
| inactive | COc1cc2c3nnc(-c4ccc(F)cc4)c-3cn(CCc3ccccc3)c2cc1OC |
| 14.2 µM | COc1cc2nc(CC3CC3)nc(N3CCN(c4ccccc4OC)CC3)c2cc1OC |
| inactive | COc1cc2c3nnc(-c4ccc(C)cc4)c-3cn(Cc3ccccc3)c2cc1OC |
| 14.9 µM | COc1cc2nc(C3CCC3)nc(N3CCN(c4ccccc4C)CC3)c2cc1OC |
| 5.82 µM | COc1cc2c3nnc(-c4ccc(F)cc4)c-3cn(Cc3ccc(C)cc3C)c2cc1OC |
| 19.8 µM | COc1cc2nc(C3CC3)nc(N3CCN(c4ccccc4Cl)CC3)c2cc1OC |
| 6.82 µM | COc1cc2c3nnc(-c4ccc(C)cc4)c-3cn(Cc3ccc(C)cc3)c2cc1OC |
| 8.11 µM | COc1ccc(Cn2cc3c(-c4ccc(F)cc4)nnc-3c3cc(OC)c(OC)cc32)cc1 |
| 9.22 µM | CCc1ccc(-c2nnc3c4cc(OC)c(OC)cc4n(Cc4ccc(F)cc4)cc2-3)cc1 |
| inactive | COc1cc2nc(C3CC3)nc(N3CCN(C(=O)c4ccccc4)CC3)c2cc1OC |
